{"source": "patent US20010044445A1", "about": "“AZOLE INHIBITORS OF CYTOKINE PRODUCTION” (priority 1999, published 2001)", "test_system": "Human peripheral blood mononuclear cells", "experiment": "Human Concanavalin-A Proliferation Assay (Con HU Assay)", "format": "cell-based", "conditions": "concanavalin-A stimulated human PBMC; for % Inhibition of proliferation (at concentrations of 1,10, or 100 μm) / inhibition at 100 µM / inhibition at 1 µM / inhibition at 10 µM: 3 days; for inhibition at 100 µM / inhibition at 1 µM / inhibition at 10 µM: 72 h, read-out: % Inhibition of proliferation (at concentrations of 1,10, or 100 μm); for pIC50: tritiated thymidine", "procedure": "Human peripheral blood mononuclear cells were cultured in RPMI 1640 medium supplemented with 10 μg/ml gentamicin, 50 μM 2-mercaptoethanol, 1X MEM non-essential amino acids (Sigma Chemical Co., St. Louis, Mo.), 100 U/ml sodium penicillin G, 100 μg/ml streptomycin sulfate, 2 mM L-glutamine, 1 mM sodium pyruvate (Life Technologies, Grand Island, N.Y.) and 10% fetal bovine serum (Hyclone, Logan, Utah) at 37° C. with 5% CO2.\nThe procedure in Current Protocols in Immunology, Volume 1, Published by the Greene Publishing Associates and John Wiley & Sons, Inc, Edited by Richard Coico, 1994, hereby incorporated by reference, was followed. Briefly, 50 ml of blood from human volunteers was collected in heparinized syringes and mixed. Blood was diluted 1:1 in Dulbecco's phosphate buffered saline (D-PBS) (Life Technologies, Grand Island, N.Y.) and mixed. PBS-blood mixture was overlaid into 50 ml centrifuge tubes containing 15 ml Histopaque 1077 (Sigma Chemical Co., St. Louis, Mo.) and centrifuged at 500 X G for 30 minutes at room temperature. Cells at the interface from each Histopaque tube were removed and mixed with 5 ml of D-PBS. Each cell suspension was diluted to 50 ml with D-PBS, mixed and centrifuged at 400 X G for 15 minutes at room temperature. After most of the supernatant was removed, cells were resuspended to 40 ml with D-PBS per tube (2 tubes per donor). Cells were centrifuged at 400 X G for 10 minutes at room temperature. Pellets were resuspended in 10 ml of supplemented RPMI 1640 and cell number determined with a Coulter counter. Cells were diluted to a concentration of 0.5×10^6 cells per mL.\nThe procedure in Current Protocols in Immunology, Volume 1, Published by the Greene Publishing Associates and John Wiley & Sons, Inc, Edited by Richard Coico, 1994, hereby incorporated by reference, was followed. Briefly, test compounds were added to appropriate wells on 96-well tissue culture plates (Corning Glass Works, Corning, N.Y.) in 20 µl of supplemented RPMI 1640. Human peripheral blood mononuclear cells were added to each well in 100 μl volumes (final cell concentration equal to 50,000 cells per well). After 15 minutes, 100 μl of 5 μg/ml concanavalin-A (Sigma Chemical Co., St. Louis, Mo.) in supplemented RPMI 1640 was added to a final concentration of 2.5 μg/ml. Plates were incubated for 3 days at 37° C. with 5% CO2. On day 3, plates were pulsed with 0.5 μCi/well tritiated thymidine (New England Nuclear, Boston, Mass.). After 6 hours, plates were harvested on a Tomatec 96-well havester (Orange, Conn.). Glass filter mats were counted on a Matrix 9600 direct beta counter (Packard, Meriden, Conn.).", "key": {"[1]": {"conditions": "concentration 1 μm (in parentheses in the cell)"}, "[2]": {"conditions": "Homo sapiens, PBMC, concentration 100 μm (in parentheses in the cell)"}, "[3]": {"conditions": "Homo sapiens, PBMC, concentration 1 μm (in parentheses in the cell)"}, "[4]": {"conditions": "Homo sapiens, PBMC, concentration 10 μm (in parentheses in the cell)"}, "[5]": {"conditions": "concentration 100 μm (in parentheses in the cell)"}}, "note": "pIC50: −log10 of the molar value. Like-named read-outs stand apart in the source and are kept apart here."}
{"smiles": "CC1(C)C(C(=O)Nc2ccc(-n3nc(C(F)(F)F)cc3C(F)(F)F)cc2)C1(C)C", "note": "[Example 2, N-[4-[3,5-bis(trifluoromethyl)-1H-pyrazol-1-yl]phenyl]-2.2.3.3-tetramethylcyclopropanecarboxamide]", "values": [{"measurement": "% Inhibition of proliferation (at concentrations of 1,10, or 100 μm)", "setting": "[1]", "result": "1(1) %"}]}
{"smiles": "O=S(=O)(Nc1ccc(-n2nc(C(F)(F)F)cc2C(F)(F)F)cc1)c1cc(F)cc(F)c1", "note": "[Example 5, N-[4-[3,5-bis(trifluoromethyl)-1H-pyrazol-1-yl]phenyl]-3,5-difluorobenzenesulfonamide]", "values": [{"measurement": "inhibition at 100 µM", "setting": "[2]", "result": 100, "unit": "%"}, {"measurement": "pIC50", "setting": "Homo sapiens, PBMC", "result": 4.47}]}
{"smiles": "O=C(CCCC[C@@H]1SC[C@@H]2NC(=O)N[C@@H]21)Nc1ccc(-n2nc(C(F)(F)F)cc2C(F)(F)F)cc1", "note": "[Example 23, 3a(S)-(3aα,4β,6aα)-N-[4-[3,5-bis(trifluoromethyl)-1H-pyrazol-1-yl]phenyl]hexahydro-2-oxo-1H-thieno[3,4-d]limidazole-4-pentanamide]", "values": [{"measurement": "% Inhibition of proliferation (at concentrations of 1,10, or 100 μm)", "setting": "[1]", "result": "4(1) %"}]}
{"smiles": "O=C(Nc1ccc(-n2nc(C(F)(F)F)cc2C(F)(F)F)cc1)C1CC2C=CC1C2", "note": "(stereo not shown) [Example 26, N-[4-[3,5-bis(trifluoromethyl)-1H-pyrazol-1-yl]phenyl]bicyclo[2.2.1]hept-5-ene-2-carboxamide]", "values": [{"measurement": "inhibition at 1 µM", "setting": "[3]", "result": 24, "unit": "%"}]}
{"smiles": "CC1CCCCC1C(=O)Nc1ccc(-n2nc(C(F)(F)F)cc2C(F)(F)F)cc1", "note": "(stereo not shown) [Example 27, N-[4-[3,5-bis(trifluoromethyl)-1H-pyrazol-1-yl]phenyl]-2-methylcyclohexanecarboxamide]", "values": [{"measurement": "inhibition at 10 µM", "setting": "[4]", "result": 100, "unit": "%"}, {"measurement": "pIC50", "setting": "Homo sapiens, PBMC", "result": 6.52}]}
{"smiles": "Cc1ccc([N+](=O)[O-])cc1NC(=O)Nc1ccc(-n2nc(C(F)(F)F)cc2C(F)(F)F)cc1", "note": "[Example 50]", "values": [{"measurement": "% Inhibition of proliferation (at concentrations of 1,10, or 100 μm)", "setting": "[1]", "result": "2(1) %"}]}
{"smiles": "O=C(Nc1ccc(-n2nc(C(F)(F)F)cc2C(F)(F)F)cc1)C1C=CCCC1", "note": "(stereo not shown) [Example 53, N-[4-[3,5-bis(trifluoromethyl)-1H-pyrazol-1-yl]phenyl]-2-cyclohexane-1-carboxamide]", "values": [{"measurement": "pIC50", "result": 6.69}, {"measurement": "% Inhibition of proliferation (at concentrations of 1,10, or 100 μm)", "setting": "[5]", "result": "99(100) %"}]}
{"smiles": "CC1CCC(C(=O)Nc2ccc(-n3nc(C(F)(F)F)cc3C(F)(F)F)cc2)CC1", "note": "(stereo not shown) [Example 54, N-[4-[3,5-bis(trifluoromethyl)-1H-pyrazol-1-yl]phenyl]-4-methylcyclohexanecarboxamide]", "values": [{"measurement": "inhibition at 1 µM", "setting": "[3]", "result": 12, "unit": "%"}]}
{"smiles": "O=C(Nc1ccc(-n2nc(C(F)(F)F)cc2C(F)(F)F)cc1)c1cccc2ccccc12", "note": "[Example 66, N-[4-[3,5-bis(trifluoromethyl)-1H-pyrazol-1-yl]phenyl]-1-naphthylenecarboxamide]", "values": [{"measurement": "pIC50", "result": 5.98}, {"measurement": "% Inhibition of proliferation (at concentrations of 1,10, or 100 μm)", "setting": "[5]", "result": "97(100) %"}]}
{"smiles": "Cc1cc(Br)ccc1NC(=O)Nc1ccc(-n2nc(C(F)(F)F)cc2C(F)(F)F)cc1", "note": "[Example 77, N-[4-[3,5-bis(trifluoromethyl)-1H-pyrazol-1-yl]phenyl]-N′-(4-bromo-2-methylphenyl)urea]", "values": [{"measurement": "inhibition at 10 µM", "setting": "[4]", "result": 93, "unit": "%"}, {"measurement": "pIC50", "setting": "Homo sapiens, PBMC", "result": 6.18}]}
{"smiles": "CN(C(=O)c1ccccc1Cl)c1ccc(-n2nc(C(F)(F)F)cc2C(F)(F)F)cc1", "note": "[Example 80, N-[4-[3,5-bis(trifluoromethyl)-1H-pyrazol-1-yl]phenyl]-2-chloro-N-methylbenzamide]", "values": [{"measurement": "inhibition at 1 µM", "setting": "[3]", "result": 43, "unit": "%"}]}
{"smiles": "CN(C(=O)c1ccc([N+](=O)[O-])cc1Cl)c1ccc(-n2nc(C(F)(F)F)cc2C(F)(F)F)cc1", "note": "[Example 81, N-[4-[3,5-bis(trifluoromethyl)-1H-pyrazol-1-yl]phenyl]-2-chloro-4-nitro-N-methylbenzamide]", "values": [{"measurement": "inhibition at 1 µM", "setting": "[3]", "result": 30, "unit": "%"}]}
{"smiles": "CN(C)c1ccccc1C(=O)Nc1ccc(-n2nc(C(F)(F)F)cc2C(F)(F)F)cc1", "note": "[Example 86, N-[4-[3,5-bis(trifluoromethyl)-1H-pyrazol-1-yl]phenyl]-2-(dimethylamino)benzamide]", "values": [{"measurement": "inhibition at 1 µM", "setting": "[3]", "result": 33, "unit": "%"}]}
{"smiles": "N#Cc1cccc(NCc2ccc(-n3nc(C(F)(F)F)cc3C(F)(F)F)cc2)c1", "note": "[Example 95, 3-[4-[[[3,5-bis(trifluoromethyl)-1H-pyrazol-1-yl]phenyl]methyl]amino]benzonitrile]", "values": [{"measurement": "pIC50", "result": 5.14}, {"measurement": "% Inhibition of proliferation (at concentrations of 1,10, or 100 μm)", "setting": "concentration 10 μm (in parentheses in the cell)", "result": "47(10) %"}]}
{"smiles": "Fc1ccc(/N=C/c2ccc(-n3nc(C(F)(F)F)cc3C(F)(F)F)cc2)c(F)c1", "note": "[Example 97, (E)-N-[4-[3,5-bis(trifluoromethyl)-1H-pyrazol-1-yl]phenylmethylene]-2,4-difluorobenzenamine]", "values": [{"measurement": "inhibition at 10 µM", "setting": "[4]", "result": 20, "unit": "%"}]}
{"smiles": "COc1ccc(C(=O)Nc2ccc(-n3nc(C(F)(F)F)cc3C(F)(F)F)cc2)cc1OC", "note": "[Example 98, N-[4-[3,5-bis(trifluoromethyl)-1H-pyrazol-1-yl]phenyl]-3-4-dimethoxybenzamide]", "values": [{"measurement": "pIC50", "result": 5.31}, {"measurement": "% Inhibition of proliferation (at concentrations of 1,10, or 100 μm)", "setting": "[5]", "result": "94(100) %"}]}
{"smiles": "Fc1ccc(NCc2ccc(-n3nc(C(F)(F)F)cc3C(F)(F)F)cc2)c(F)c1", "note": "[Example 108, 4-[3,5-bis(trifluoromethyl)-1H-pyrazol-1-yl]-N-(2,4-difluorophenyl)benzenemethanamine]", "values": [{"measurement": "inhibition at 1 µM", "setting": "[3]", "result": 18, "unit": "%"}]}
{"smiles": "CCCCCCCc1ccc(C(=O)Nc2ccc(-n3nc(C(F)(F)F)cc3C(F)(F)F)cc2)cc1", "note": "[Example 111, N-[4-[3,5-bis(trifluoromethyl)-1H-pyrazol-1-yl]phenyl]-4-heptybenzamide]", "values": [{"measurement": "pIC50", "result": 4.39}, {"measurement": "% Inhibition of proliferation (at concentrations of 1,10, or 100 μm)", "setting": "[5]", "result": "76(100) %"}]}
{"smiles": "CNC(=O)c1ccccc1C(=O)Nc1ccc(-n2nc(C(F)(F)F)cc2C(F)(F)F)cc1", "note": "[Example 115, N-[4-[3,5-bis(trifluoromethyl)-1H-pyrazol-1-yl]phenyl]-N′-methyl-1,2-benzenedicarboxamide]", "values": [{"measurement": "inhibition at 100 µM", "setting": "[2]", "result": 71, "unit": "%"}, {"measurement": "pIC50", "setting": "Homo sapiens, PBMC", "result": 4.29}]}
{"smiles": "CC(C)(C)OC(=O)N1CCC(C(=O)Nc2ccc(-n3nc(C(F)(F)F)cc3C(F)(F)F)cc2)CC1", "note": "[Example 120, 1,1-Dimethylethyl 4-[[[4-[3,5-bis(trifluoromethyl)-1H-pyrazol-1-yl]phenyl]amino]carbonyl]-1-piperidinecarboxylate]", "values": [{"measurement": "inhibition at 100 µM", "setting": "[2]", "result": 100, "unit": "%"}, {"measurement": "pIC50", "setting": "Homo sapiens, PBMC", "result": 6.31}]}
{"smiles": "O=C(Nc1ccc(-n2nc(C(F)(F)F)cc2C(F)(F)F)cc1)c1ccccn1", "note": "[Example 121, N-[4-[3,5-bis(trifluoromethyl)-1H-pyrazol-1-yl]phenyl]-2-pyridinecarboxamide]", "values": [{"measurement": "inhibition at 100 µM", "setting": "[2]", "result": 53, "unit": "%"}, {"measurement": "pIC50", "setting": "Homo sapiens, PBMC", "result": 4.98}]}
{"smiles": "CCN(CC)c1ccc(C(=O)Nc2ccc(-n3nc(C(F)(F)F)cc3C(F)(F)F)cc2)cc1", "note": "[Example 122, N-[4-[3,5-bis(trifluoromethyl)-1H-pyrazol-1-yl]phenyl]-4-(diethylamino)benzamide]", "values": [{"measurement": "inhibition at 1 µM", "setting": "[3]", "result": 15, "unit": "%"}]}
{"smiles": "O=C(Nc1ccc(-n2nc(C(F)(F)F)cc2C(F)(F)F)cc1)C1CCCC1", "note": "[Example 123, N-[4-[3,5-bis(trifluoromethyl)-1H-pyrazol-1-yl]phenyl]cyclopentanecarboxmide]", "values": [{"measurement": "pIC50", "result": 6.59}, {"measurement": "% Inhibition of proliferation (at concentrations of 1,10, or 100 μm)", "setting": "[5]", "result": "99(100) %"}]}
{"smiles": "O=C(Nc1ccc(-n2nc(C(F)(F)F)cc2C(F)(F)F)cc1)C1CCCCC1", "note": "[Example 124, N-[4-[3,5-bis(trifluoromethyl)-1H-pyrazol-1-yl]phenyl]cyclohexanecarboxmide]", "values": [{"measurement": "pIC50", "result": 6.55}, {"measurement": "% Inhibition of proliferation (at concentrations of 1,10, or 100 μm)", "setting": "[5]", "result": "99(100) %"}]}
{"smiles": "N#Cc1cccc(NCc2ccc(-n3nc(C(F)(F)F)cc3C(F)(F)F)cc2)c1", "note": "[Example 128, 3-[[[4-[3,5-bis(trifluoromethyl)-1H-pyrazol-1-yl]phenyl]methyl]amino]benzonitrile]", "values": [{"measurement": "inhibition at 1 µM", "setting": "[3]", "result": 25, "unit": "%"}]}
{"smiles": "O=C(Nc1ccc(-n2nc(C(F)(F)F)cc2C(F)(F)F)cc1)c1cc([N+](=O)[O-])cc([N+](=O)[O-])c1", "note": "[Example 134, N-[4-[3,5-bis(trifluoromethyl)-1H-pyrazol-1-yl]phenyl]-3,5-dinitrobenzamide]", "values": [{"measurement": "inhibition at 100 µM", "setting": "[5]", "result": 100, "unit": "%"}, {"measurement": "pIC50", "result": 5.56}]}
